From publication PMC11085442 (Molecules, 2024)
≈ marks a conversion by molar mass, not a printed value.

Legend:
[1] = tested on: LPS-stimulated RAW264.7 cell lines; experiment: LPS-induced NO production (Griess) in RAW264.7; format: cell-based, murine; settings: for The production of NO / inhibition at 10 µM: LPS-stimulated RAW264.7; for The production of NO: LPS group 49.86 ± 0.62, control 1.20 ± 0.38; for inhibitory activity against NO production compared with curcumin: 10 μM; for inhibition at 10 µM: Mus musculus, read-out: inhibition rate (anti-inflammatory activity)
Procedure: RAW 264.7 cells were plated in 96-well plates at a density of 1 × 10^4 cells/well and incubated overnight at 37 °C under 5% CO2. […] Dexamethasone (Solarbio, D8040, Beijing, China) was used as the positive control. Then, 24 h later, NO production was determined by measuring the nitrite content using Griess reagents. Fifty microliters of culture supernatants were transferred to 96-well plates and mixed with 50 μL Griess reagent A. After incubation at room temperature for 5 min, the samples were mixed with an equal volume Griess reagent B for another 5 min. The absorbance of each mixture at 540 nm was measured using a microplate reader.

[2] = tested on: H2O2-stimulated PC 12 cell lines; experiment: Protection against H2O2-induced oxidative damage (CCK-8); format: cell-based, rat; settings: for anti-oxidant capacity compared with curcumin: 10 μM, H2O2-stimulated PC 12; for Cell viability / viability at 5 µM / viability at 10 µM / viability at 20 µM: H2O2-induced oxidative damage, PC 12, H2O2 group 49.69 ± 1.37, control 100; for Cell viability: in % (unit assumed); for viability at 5 µM / viability at 10 µM / viability at 20 µM: Rattus norvegicus; for viability at 5 µM: PC-12, Dose 5 μM; for viability at 10 µM: PC-12, Dose 10 μM; for viability at 20 µM: PC-12, Dose 20 μM
Procedure: PC 12 cells were seeded in 96-well plates at a density of 8000 cells/well and incubated overnight. […] After incubating under the same conditions for 24 h, 10 μL CCK-8 solution was added to each well. After 2 h incubation, the absorbance of each well was measured at 450 nm using a microplated reader (Multiskan MK-3, Thermo, Waltham, MA, USA).

PC 12 cell lines = experiment: Radiation protection in vitro (CCK-8); format: cell-based, rat; settings: for radiation protection capacity / radiation protection capability compared with curcumin: 10 μM; for radiation protection capacity: versus radiation group; for viability at 5 µM / viability at 10 µM / viability at 20 µM: Rattus norvegicus; for viability at 5 µM: PC-12, Dose 5 μM; for viability at 5 µM / viability at 10 µM / Cell viability / viability at 20 µM: radiation 8.0 Gy, PC 12, radiation group 50.22 ± 1.08; for viability at 10 µM: PC-12, Dose 10 μM; for Cell viability: in % (unit assumed); for radiation protection capability compared with curcumin: irradiated PC 12; for viability at 20 µM: PC-12, Dose 20 μM
Procedure: The rat adrenal pheochromocytoma cells (PC 12) were used for in vitro studies. A Cell Counting Kit-8 (CCK-8, Applygen Technologies Co., Ltd., Beijing, China) assay was used to determine cell viability. […] Cells were irradiated with dose of 8.0 Gy at a dose rate of 0.8 Gy/min. Then, 10 μL CCK-8 solution was added to all the wells. After 4 h incubation, the absorbance at 450 nm of each well was measured in a multiscan photometer.

[3] = Aqueous solubility determination by UV spectrophotometer; format: physicochemical; settings: water, thermodynamic from solid, saturated solution concentration
Procedure: A UV spectrophotometer was used to test the aqueous solubility of target compounds. Each compound to be tested was prepared into solutions with concentrations of 0.2 M, 0.1 M, 0.05 M, 0.025 M, 0.0125 M, 0.00625 M, and 0.003125 M. The optical density (OD) values of the prepared solutions were measured using an ultraviolet spectrophotometer, and concentration–OD-value standard curves were drawn for each compound to be tested. The saturated solutions of the target compounds were diluted by 5000 times and detected using an ultraviolet spectrophotometer to measure the OD values, respectively. The measured OD values were substituted into the corresponding concentration-OD value standard curve to calculate the diluted concentrations, which were multiplied by 5000 to obtain the saturated solution concentrations of the target compounds.

Row | Structure (SMILES) | The production of NO ([1]; Dose 5 μM) | The production of NO ([1]; Dose 10 μM) | The production of NO ([1]; Dose 15 μM) | Cell viability ([2]; Dose 5 μM) | Cell viability ([2]; Dose 10 μM) | Cell viability ([2]; Dose 20 μM) | viability at 5 µM (PC 12 cell lines) [%] | viability at 10 µM (PC 12 cell lines) [%] | viability at 5 µM [2] [%] | viability at 10 µM [2] [%] | viability at 20 µM [2] [%] | Cell viability (PC 12 cell lines; Dose 5 μM) | Cell viability (PC 12 cell lines; Dose 10 μM) | Cell viability (PC 12 cell lines; Dose 20 μM) | viability at 20 µM (PC 12 cell lines) [%] | also measured
1 | CCOc1cc(/C=C/C(=O)CC(=O)/C=C/c2cc(CN(C)C)c(O)c(OC)c2)ccc1O [Compound 1a] | 44.93 ± 0.35 | 32.32 ± 1.94 | 5.77 ± 0.09 | 66.25 ± 1.36 | 80.18 ± 1.38 | 89.36 ± 1.63 | 60 ± 5.39 | 62.9 ± 6.12 |  |  |  |  |  |  |  | anti-oxidant capacity compared with curcumin [2]: better anti-oxidant capacity; radiation protection capacity (PC 12 cell lines): a certain degree of radiation protection capacity; solubility [3]: 201 mg/mL (≈ 457 mM)
2 | COc1cc(/C=C/C(=O)CC(=O)/C=C/c2cc(OC)c(O)c(OC)c2)cc(CN(C)C)c1O [Compound 2] | 43.78 ± 1.52 | 42.04 ± 1.70 | 36.99 ± 1.85 |  |  |  |  |  | 55.7 ± 0.79 | 58.2 ± 0.8 | 63.4 ± 1.13 | 50.96 ± 1.31 | 52.89 ± 2.05 | 54.68 ± 1.78 |  | 
3 | COc1cc(/C=C/C(=O)CC(=O)/C=C/c2ccc(O)cc2C)cc(CN(C)C)c1O [Compound 3] | 39.26 ± 2.12 | 30.62 ± 1.71 | 10.36 ± 3.69 |  |  |  |  |  | 64.7 ± 2.69 | 71.7 ± 3.77 | 81.7 ± 2.41 | 49.57 ± 2.70 | 51.85 ± 2.04 | 57.44 ± 1.80 |  | 
4 | COc1cc(/C=C/C(=O)CC(=O)/C=C/c2ccc(O)cc2F)cc(CN(C)C)c1O [Compound 4] | 40.64 ± 1.28 | 29.91 ± 1.78 | 10.48 ± 0.47 |  |  |  |  |  | 61.7 ± 2.59 | 71 ± 2.33 | 84.7 ± 2.76 | 49.46 ± 1.97 | 51.75 ± 0.40 | 59.56 ± 0.59 |  | 
5 | COc1cc(/C=C/C(=O)CC(=O)/C=C/c2ccc(OC)c(OC)c2OC)cc(CN(C)C)c1O [Compound 6] | 27.16 ± 2.73 | 14.67 ± 3.66 | 5.95 ± 0.13 |  |  |  |  |  | 56.6 ± 1.66 | 67.8 ± 1.91 | 94.89 ± 0.58 | 58.25 ± 1.05 | 62.18 ± 1.03 | 83.08 ± 6.65 |  | inhibitory activity against NO production compared with curcumin [1]: better inhibitory activity; radiation protection capability compared with curcumin (PC 12 cell lines): better radiation protection capability; radiation protection capacity (PC 12 cell lines): a certain degree of radiation protection capacity
6 | COc1cc(/C=C/C(=O)CC(=O)/C=C/c2ccc(O)c(Cl)c2)cc(CN(C)C)c1O [Compound 7] | 35.15 ± 2.72 | 18.46 ± 2.34 | 10.47 ± 1.32 |  |  |  |  |  | 54.4 ± 1.18 | 61.9 ± 1.29 | 78.2 ± 1.43 | 61.54 ± 2.47 | 63.26 ± 3.00 | 69.98 ± 4.31 |  | 
7 | COc1cc(/C=C/C(=O)CC(=O)/C=C/c2cc(C)c(O)c(C)c2)cc(CN(C)C)c1O [Compound 8] | 42.90 ± 0.85 | 20.21 ± 1.82 | 5.46 ± 0.34 |  |  |  |  |  | 64.6 ± 1.64 | 67.8 ± 2.26 | 81.7 ± 3.21 | 53.58 ± 0.78 | 55.23 ± 1.26 | 78.50 ± 2.59 |  | radiation protection capacity (PC 12 cell lines): a certain degree of radiation protection capacity
8 | COc1cc(O)ccc1/C=C/C(=O)CC(=O)/C=C/c1cc(CN(C)C)c(O)c(OC)c1 [Compound 9] | 42.38 ± 2.73 | 29.76 ± 1.48 | 19.69 ± 0.78 |  |  |  |  |  | 53.22 ± 0.26 | 58.53 ± 0.46 | 66.1 ± 1.09 | 56.32 ± 1.77 | 59.94 ± 1.26 | 65.00 ± 1.84 |  | inhibition at 10 µM [1]: 41%
9 | COc1cc(/C=C/C(=O)CC(=O)/C=C/c2ccc(O)cc2)cc(CN(C)C)c1O [Compound 10] | 36.66 ± 2.00 | 15.36 ± 2.09 | 4.91 ± 0.77 | 53.53 ± 2.28 | 58.20 ± 1.24 | 77.80 ± 2.65 | 58.4 ± 1.95 | 63.9 ± 2.22 |  |  |  |  |  |  | 79.3 ± 3.13 | inhibitory activity against NO production compared with curcumin [1]: better inhibitory activity; inhibition at 10 µM [1]: 71%
10 | COc1cc(/C=C/C(=O)CC(=O)/C=C/c2cc(C)c(O)cc2C)cc(CN(C)C)c1O [Compound 12] | 32.06 ± 0.58 | 15.78 ± 0.50 | 11.39 ± 1.00 | 60.69 ± 1.53 | 70.31 ± 1.65 | 79.23 ± 1.18 | 56.6 ± 1.03 | 63.1 ± 1.52 |  |  |  |  |  |  | 76.8 ± 1.27 | inhibitory activity against NO production compared with curcumin [1]: better inhibitory activity; radiation protection capacity (PC 12 cell lines): a certain degree of radiation protection capacity
11 | COc1cc(/C=C/C(=O)CC(=O)/C=C/c2c(C)cc(O)cc2C)cc(CN(C)C)c1O [Compound 13] | 26.57 ± 1.74 | 21.53 ± 0.35 | 10.02 ± 0.61 | 62.94 ± 0.50 | 69.55 ± 1.06 | 80.61 ± 0.83 | 61.4 ± 1.58 | 67.8 ± 2.32 |  |  |  |  |  |  | 87.38 ± 0.6 | 
12 | COc1cc(/C=C/C(=O)CC(=O)/C=C/c2c(OC)cc(O)cc2OC)cc(CN(C)C)c1O [Compound 14] | 27.84 ± 1.41 | 22.09 ± 0.55 | 9.39 ± 0.34 | 59.32 ± 2.89 | 65.73 ± 2.40 | 74.30 ± 1.25 | 53.08 ± 0.34 | 54.4 ± 0.72 |  |  |  |  |  |  | 63.5 ± 1.49 | 
13 | COc1cc(/C=C/C(=O)CC(=O)/C=C/c2cc(CN(C)C)c(O)c(OC)c2)ccc1O [Compound 15] | 41.85 ± 1.07 | 28.31 ± 0.33 | 14.00 ± 0.92 | 60.18 ± 1.41 | 71.98 ± 3.71 | 87.82 ± 1.77 | 58.6 ± 0.61 | 63.45 ± 0.21 |  |  |  |  |  |  | 77 ± 1.23 | inhibition at 10 µM [1]: 44%; anti-oxidant capacity compared with curcumin [2]: no statistical difference; radiation protection capability compared with curcumin (PC 12 cell lines): no statistical difference
14 | COc1cc(/C=C/C(=O)CC(=O)/C=C/c2cc(CN(C)C)c(O)c(OC)c2)ccc1O [Compound 15a] | 33.79 ± 2.90 | 17.01 ± 0.60 | 4.71 ± 0.18 |  |  |  |  |  | 62.2 ± 2.53 | 72.5 ± 2.02 | 89.22 ± 0.36 |  |  |  |  | inhibitory activity against NO production compared with curcumin [1]: better inhibitory activity; solubility [3]: 284 mg/mL (≈ 667 mM)
